Key:
RNR (RNR1:RNR2 1:1) = molecular target: T1, RNR (RNR1:RNR2 1:1) (Homo sapiens, UniProt P23921+P31350); assay: RNR enzyme activity, rapid-fire mass spectrometry (RF/MS) assay; type: biochemical; details: RNR 50 nM, 1:1 (RNR1:RNR2); CDP 5 μM; ATP 1 mM; 37° C., 45 min; compounds screened up to 50 μM
T1 sequence (P23921 1-792): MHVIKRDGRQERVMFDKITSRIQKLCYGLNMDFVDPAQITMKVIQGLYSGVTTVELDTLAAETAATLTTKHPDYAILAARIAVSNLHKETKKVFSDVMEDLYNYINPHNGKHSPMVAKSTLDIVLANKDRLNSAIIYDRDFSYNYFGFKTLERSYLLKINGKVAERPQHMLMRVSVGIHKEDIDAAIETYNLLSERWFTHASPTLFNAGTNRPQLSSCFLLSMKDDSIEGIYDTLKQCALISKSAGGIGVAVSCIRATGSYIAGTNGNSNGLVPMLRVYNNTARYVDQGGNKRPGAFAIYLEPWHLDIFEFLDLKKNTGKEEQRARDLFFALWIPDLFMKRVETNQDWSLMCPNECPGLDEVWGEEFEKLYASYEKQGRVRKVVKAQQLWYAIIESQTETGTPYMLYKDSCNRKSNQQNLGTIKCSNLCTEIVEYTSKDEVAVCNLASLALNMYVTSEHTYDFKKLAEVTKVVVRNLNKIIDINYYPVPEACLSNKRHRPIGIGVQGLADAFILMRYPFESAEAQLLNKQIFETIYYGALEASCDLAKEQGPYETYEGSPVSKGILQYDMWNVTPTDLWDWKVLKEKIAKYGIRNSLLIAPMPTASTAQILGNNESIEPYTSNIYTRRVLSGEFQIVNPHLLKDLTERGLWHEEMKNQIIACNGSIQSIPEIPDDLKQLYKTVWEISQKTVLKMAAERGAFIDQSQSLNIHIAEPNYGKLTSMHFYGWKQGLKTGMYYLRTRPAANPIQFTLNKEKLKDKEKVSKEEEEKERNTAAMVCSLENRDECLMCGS
T1 sequence (P31350 1-389): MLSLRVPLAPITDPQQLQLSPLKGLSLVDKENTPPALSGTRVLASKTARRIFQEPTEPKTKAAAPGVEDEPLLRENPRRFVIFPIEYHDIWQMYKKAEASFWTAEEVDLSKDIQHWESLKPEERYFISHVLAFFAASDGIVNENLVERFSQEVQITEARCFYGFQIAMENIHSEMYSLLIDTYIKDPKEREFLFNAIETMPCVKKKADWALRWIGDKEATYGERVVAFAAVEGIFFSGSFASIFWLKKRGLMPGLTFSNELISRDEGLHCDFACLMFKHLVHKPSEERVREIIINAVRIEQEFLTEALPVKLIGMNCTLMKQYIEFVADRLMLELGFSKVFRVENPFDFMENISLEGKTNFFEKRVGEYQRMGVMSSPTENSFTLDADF
Protocol: A rapid-fire mass spectrometry (RF/MS) assay was used to assess RNR enzyme activity using a 384 well plate and a robotic platform.
The plate layout included two validated reference compounds (Triapine (3-AP) and Hydroxyurea (HU)): • A dose response in duplicate, top concentration: 5 μM (3-AP) and 250 μM (HU), semi-log • dilutions. • Spike wells in triplicate randomly spotted at four concentrations: • 250 μM, 100 μM, 30 μM and 2 μM for HU • 5 μM, 2 μM, 0.6 μM and 0.04 μM for 3-AP
First, the multidrop pipes were saturated for 30 minutes with enzymatic solution. Then 30 μL of Stop solution was distributed in column 24. Next, 15 μL of enzyme was distributed in column 1 to 24. Next, a pre-incubation step of 15 minutes at room temperature occurred, followed by distribution of 15 μL of substrate solution (column 1 to 24). Next, the plate was incubated for 45 minutes at 37° C. 30 μL of Stop solution was distributed to columns 1 to 23.
The final parameters for the enzyme reactions were: • Incubation: 37° C., 45 min • [CDP]: 5 μM: [ATP]: 1 mM; [NADPH]: No • [RNR]final: 50 nM with 1:1 (RNR1:RNR2) ratio • Final volume: 30 μL • Stop solution: 6% HCOOH containing 2 μM of 15

[1] = system: pCHK1 (S345) in Colo320 DM cells; assay: Alphalisa assay, detection of pCHK1 (S345) in Colo320 DM cells; type: cell-based; details: Homo sapiens, COLO 320DM, compound incubation overnight (approximately 16 hours)
Protocol: Colo320 DM cells (ATCC #CCL-220, derived from human colorectal adenocarcinoma, Dukes' type C) were seeded on a 96-well, cell culture treated assay plate at a density of 50,000 cells/well in 200 μL of RPMI-1640 media supplemented with 10% Fetal Bovine Serum and incubated at 37° C. overnight. The following day, test compound dilutions were added directly to the plated cells by a Tecan digital dispenser to a final DMSO concentration of <0.5%, and incubated at 37° C. overnight (approximately 16 hours). The following day all cull culture media was removed from the cells. 75 μL of 1× AlphaLisa lysis buffer was added to each well and plates were agitated on a shaker for 30 minutes at room temperature. The lysis of cells and detection of pCHK1 (S345) were performed with regents contained within the AlphaLisa Sure Fire assay kit (Perkin Elmer #ALSU-PCHK1-A) according to the manufacturer's instructions. 10 μL of each lysate was then transferred to a white, 384-well assay plate (Perkin Elmer #6008280), 5 μL of Acceptor mix was then added to each well of lysate in the white, 384-well assay plate and incubated in the dark at room temperature for 60 minutes. 5 μL of Donor mix was then added to each well of the white, 384-well assay plate in subdued light and incubated at room temperature for 60 minutes. Plates were read on an Alpha Technology-compatible plate reader using standard AlphaLisa settings.

## CN(c1ccc(O)cc1)C1CN(S(=O)(=O)c2ccc3cc[nH]c3c2)C1 [compound 13, 4-((1-((1H-indol-6-yl)sulfonyl)azetidin-3-yl)(methyl)amino)phenol]
RNR (RNR1:RNR2 1:1)
  IC50: ≤ 0.05 µM
[1]
  IC50: ≤ 1 µM

— patent publication US20240285614A1, “PHENOL RIBONUCLEOTIDE REDUCTASE (RNR) INHIBITORS AND USES THEREOF” (Boundless Bio, Inc., priority 2023, published 2024)
